In patent US20230013823A1, “INHIBITORS OF HUMAN IMMUNODEFICIENCY VIRUS REPLICATION” (VIV HEALTHCARE UK (No. 5) LIMITED, priority 2019, published 2023):

Legend:
[1] = tested on: recombinant NL4-3 virus (Renilla luciferase in nef); experiment: HIV cell culture assay (antiviral activity, luciferase readout in MT-2 cells); format: cell-based; settings: Renilla, NL43
In short: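 MT-2 cells were infected for 4-5 days with 293T-derived recombinant NL4-3 reporter virus in the presence of serially diluted compound. Antiviral activity was quantified as luciferase activity using a live-cell substrate. EC50 was derived from the median effect equation.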

[2] = Compound cytotoxicity, XTT-based colorimetric assay; format: cell-based; settings: human; uninfected MT2 cells, day 4, XTT
Experimental: Compound cytotoxicity and the corresponding CC50 values were determined using the same protocol as described in the antiviral assay except that uninfected cells were used. Cytotoxicity was assessed on day 4 in uninfected MT2 cells by using an XTT (2,3-bis[2-Methoxy-4-nitro-5-sulfophenyl]-2H-tetrazolium-5-carboxyanilide inner salt)-based colorimetric assay (Sigma-Aldrich, St Louis, Mo.).

SMILES	EC50 [1]	CC50 at 4 days [2]
Cn1nc(NS(C)(=O)=O)c2c(Cl)ccc(-n3c([C@H](Cc4cc(F)cc(F)c4)NC(=O)Cn4nc(C(F)F)c5c4C(F)(F)[C@@H]4C[C@H]54)nc4cc(-n5nccc5C(F)(F)F)ccc4c3=O)c21 (atropisomer, axis not shown; (P)) [Example 32, N—((S)-1-((3P)-3-(4-chloro-1-methyl-3-(methylsulfonamido)-1H-indazol-7-yl)-4-oxo-7-(5-(trifluoromethyl)-1H-pyrazol-1-yl)-3,4-dihydroquinazolin-2-yl)-2-(3,5-difluorophenyl)ethyl)-2-((3bS,4aR)-3-(difluoromethyl)-5,5-difluoro-3b,4,4a,5-tetrahydro-1H-cyclopropa[3,4]cyclopenta[1,2-c]pyrazol-1-yl)acetamide]	0.079 nM	> 100 nM
Cn1nc(NS(C)(=O)=O)c2c(Cl)ccc(-n3c([C@H](Cc4cc(F)cc(F)c4)NC(=O)Cn4nc(C(F)F)c5c4C(F)(F)[C@@H]4C[C@H]54)nc4cc(-c5cnn(CC(F)F)c5)ccc4c3=O)c21 (atropisomer, axis not shown; (P)) [Example 34, N—((S)-1-((3P)-3-(4-chloro-1-methyl-3-(methylsulfonamido)-1H-indazol-7-yl)-7-(1-(2,2-difluoroethyl)-1H-pyrazol-4-yl)-4-oxo-3,4-dihydroquinazolin-2-yl)-2-(3,5-difluorophenyl)ethyl)-2-((3bS,4aR)-3-(difluoromethyl)-5,5-difluoro-3b,4,4a,5-tetrahydro-1H-cyclopropa[3,4]cyclopenta[1,2-c]pyrazol-1-yl)acetamide]	0.054 nM	> 100 nM
Cn1nc(NS(C)(=O)=O)c2c(Cl)ccc(-n3c([C@H](Cc4cc(F)cc(F)c4)NC(=O)Cn4nc(C(F)F)c5c4C(F)(F)[C@H]4C[C@H]54)nc4cc(-c5cnn(C(F)F)c5)ccc4c3=O)c21 (atropisomer, axis not shown; (P)) [Example 35, N—((S)-1-((3P)-3-(4-chloro-1-methyl-3-(methylsulfonamido)-1H-indazol-7-yl)-7-(1-(difluoromethyl)-1H-pyrazol-4-yl)-4-oxo-3,4-dihydroquinazolin-2-yl)-2-(3,5-difluorophenyl)ethyl)-2-((3bS,4aR)-3-(difluoromethyl)-5,5-difluoro-3b,4,4a,5-tetrahydro-1H-cyclopropa[3,4]cyclopenta[1,2-c]pyrazol-1-yl)acetamide]	0.092 nM	> 100 nM
Cc1nc2cc(-c3ccc4c(=O)n(-c5ccc(Cl)c6c(NS(C)(=O)=O)nn(C)c56)c([C@H](Cc5cc(F)cc(F)c5)NC(=O)Cn5nc(C(F)F)c6c5C(F)(F)[C@@H]5C[C@H]65)nc4c3)ccc2s1 (atropisomer, axis not shown; (P)) [Example 36, N—((S)-1-((3P)-3-(4-chloro-1-methyl-3-(methylsulfonamido)-1H-indazol-7-yl)-7-(2-methylbenzo[d]thiazol-5-yl)-4-oxo-3,4-dihydroquinazolin-2-yl)-2-(3,5-difluorophenyl)ethyl)-2-((3bS,4aR)-3-(difluoromethyl)-5,5-difluoro-3b,4,4a,5-tetrahydro-1H-cyclopropa[3,4]cyclopenta[1,2-c]pyrazol-1-yl)acetamide]	1.8 nM	> 100 nM
Cn1nc(NS(C)(=O)=O)c2c(Cl)ccc(-n3c([C@H](Cc4cc(F)cc(F)c4)NC(=O)Cn4nc(C(F)F)c5c4C(F)(F)[C@@H]4C[C@H]54)nc4cc(-c5cc(C(C)(F)F)ccn5)ccc4c3=O)c21 (atropisomer, axis not shown; (P)) [Example 37, N—((S)-1-((3P)-3-(4-chloro-1-methyl-3-(methylsulfonamido)-1H-indazol-7-yl)-7-(4-(1,1-difluoroethyl)pyridin-2-yl)-4-oxo-3,4-dihydroquinazolin-2-yl)-2-(3,5-difluorophenyl)ethyl)-2-((3bS,4aR)-3-(difluoromethyl)-5,5-difluoro-3b,4,4a,5-tetrahydro-1H-cyclopropa[3,4]cyclopenta[1,2-c]pyrazol-1-yl)acetamide]	0.33 nM	> 100 nM
Cn1nc(NS(C)(=O)=O)c2c(Cl)ccc(-n3c([C@H](Cc4cc(F)cc(F)c4)NC(=O)Cn4nc(C(F)F)c5c4C(F)(F)[C@@H]4C[C@H]54)nc4cc(-n5cc(C(F)(F)F)cn5)ccc4c3=O)c21 (atropisomer, axis not shown; (P)) [Example 38, N—((S)-1-((3P)-3-(4-chloro-1-methyl-3-(methylsulfonamido)-1H-indazol-7-yl)-4-oxo-7-(4-(trifluoromethyl)-1H-pyrazol-1-yl)-3,4-dihydroquinazolin-2-yl)-2-(3,5-difluorophenyl)ethyl)-2-((3bS,4aR)-3-(difluoromethyl)-5,5-difluoro-3b,4,4a,5-tetrahydro-1H-cyclopropa[3,4]cyclopenta[1,2-c]pyrazol-1-yl)acetamide]	0.17 nM	> 100 nM
Cn1nc(NS(C)(=O)=O)c2c(Cl)ccc(-n3c([C@H](Cc4cc(F)cc(F)c4)NC(=O)Cn4nc(C(F)F)c5c4C(F)(F)[C@@H]4C[C@H]54)nc4cc(-c5cnn(C6CC6)c5)ccc4c3=O)c21 (atropisomer, axis not shown; (P)) [Example 40, N—((S)-1-((3P)-3-(4-chloro-1-methyl-3-(methylsulfonamido)-1H-indazol-7-yl)-7-(1-cyclopropyl-1H-pyrazol-4-yl)-4-oxo-3,4-dihydroquinazolin-2-yl)-2-(3,5-difluorophenyl)ethyl)-2-((3bS,4aR)-3-(difluoromethyl)-5,5-difluoro-3b,4,4a,5-tetrahydro-1H-cyclopropa[3,4]cyclopenta[1,2-c]pyrazol-1-yl)acetamide]	0.082 nM	> 100 nM
Cn1nc(NS(C)(=O)=O)c2c(Cl)ccc(-n3c([C@H](Cc4cc(F)cc(F)c4)NC(=O)Cn4nc(C(F)F)c5c4C(F)(F)[C@@H]4C[C@H]54)nc4cc(-c5cnn(CC(F)(F)F)c5)ccc4c3=O)c21 (atropisomer, axis not shown; (P)) [Example 41, N—((S)-1-((3P)-3-(4-chloro-1-methyl-3-(methylsulfonamido)-1H-indazol-7-yl)-4-oxo-7-(1-(2,2,2-trifluoroethyl)-1H-pyrazol-4-yl)-3,4-dihydroquinazolin-2-yl)-2-(3,5-difluorophenyl)ethyl)-2-((3bS,4aR)-3-(difluoromethyl)-5,5-difluoro-3b,4,4a,5-tetrahydro-1H-cyclopropa[3,4]cyclopenta[1,2-c]pyrazol-1-yl)acetamide]	0.097 nM	> 100 nM
Cn1nc(NS(C)(=O)=O)c2c(Cl)ccc(-n3c([C@H](Cc4cc(F)cc(F)c4)NC(=O)Cn4nc(C(F)F)c5c4C(F)(F)[C@@H]4C[C@H]54)nc4cc(-c5cnn(CCF)c5)ccc4c3=O)c21 (atropisomer, axis not shown; (P)) [Example 42, N—((S)-1-((3P)-3-(4-chloro-1-methyl-3-(methylsulfonamido)-1H-indazol-7-yl)-7-(1-(2-fluoroethyl)-1H-pyrazol-4-yl)-4-oxo-3,4-dihydroquinazolin-2-yl)-2-(3,5-difluorophenyl)ethyl)-2-((3bS,4aR)-3-(difluoromethyl)-5,5-difluoro-3b,4,4a,5-tetrahydro-1H-cyclopropa[3,4]cyclopenta[1,2-c]pyrazol-1-yl)acetamide]	0.068 nM	> 100 nM
